In patent US7812183B2, “Benzopyran derivatives as potassium channel openers” (Janssen Pharmaceutica NV, priority 2005, dated 2010):

Molecular target: T1, KATP channels (Homo sapiens, UniProt O60706+Q14654)
T1 construct: TE671 human medulloblastoma cells were obtained from ATCC; host or cells: TE671 human medulloblastoma cells
Test: Potassium Channel Assay (FLIPR membrane potential, TE671 cells)
Type: cell-based
Conditions: TE671 human medulloblastoma cells, Membrane Potential Assay Dye, room temperature, hyperpolarization from KATP channel opening
How it was run: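 Human medulloblastoma cells plated day before at 50K/well, loaded 15–30 min with membrane potential dye in HEPES buffer (2 mM KCl, 2 mM CaCl2, 5 mM glucose) at room temperature. Compound-induced hyperpolarization (fluorescence decrease) monitored 3 min; 5 μM glyburide then added to confirm KATP opener specificity.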

T1 sequence (O60706 1-1549 isoform O60706-2): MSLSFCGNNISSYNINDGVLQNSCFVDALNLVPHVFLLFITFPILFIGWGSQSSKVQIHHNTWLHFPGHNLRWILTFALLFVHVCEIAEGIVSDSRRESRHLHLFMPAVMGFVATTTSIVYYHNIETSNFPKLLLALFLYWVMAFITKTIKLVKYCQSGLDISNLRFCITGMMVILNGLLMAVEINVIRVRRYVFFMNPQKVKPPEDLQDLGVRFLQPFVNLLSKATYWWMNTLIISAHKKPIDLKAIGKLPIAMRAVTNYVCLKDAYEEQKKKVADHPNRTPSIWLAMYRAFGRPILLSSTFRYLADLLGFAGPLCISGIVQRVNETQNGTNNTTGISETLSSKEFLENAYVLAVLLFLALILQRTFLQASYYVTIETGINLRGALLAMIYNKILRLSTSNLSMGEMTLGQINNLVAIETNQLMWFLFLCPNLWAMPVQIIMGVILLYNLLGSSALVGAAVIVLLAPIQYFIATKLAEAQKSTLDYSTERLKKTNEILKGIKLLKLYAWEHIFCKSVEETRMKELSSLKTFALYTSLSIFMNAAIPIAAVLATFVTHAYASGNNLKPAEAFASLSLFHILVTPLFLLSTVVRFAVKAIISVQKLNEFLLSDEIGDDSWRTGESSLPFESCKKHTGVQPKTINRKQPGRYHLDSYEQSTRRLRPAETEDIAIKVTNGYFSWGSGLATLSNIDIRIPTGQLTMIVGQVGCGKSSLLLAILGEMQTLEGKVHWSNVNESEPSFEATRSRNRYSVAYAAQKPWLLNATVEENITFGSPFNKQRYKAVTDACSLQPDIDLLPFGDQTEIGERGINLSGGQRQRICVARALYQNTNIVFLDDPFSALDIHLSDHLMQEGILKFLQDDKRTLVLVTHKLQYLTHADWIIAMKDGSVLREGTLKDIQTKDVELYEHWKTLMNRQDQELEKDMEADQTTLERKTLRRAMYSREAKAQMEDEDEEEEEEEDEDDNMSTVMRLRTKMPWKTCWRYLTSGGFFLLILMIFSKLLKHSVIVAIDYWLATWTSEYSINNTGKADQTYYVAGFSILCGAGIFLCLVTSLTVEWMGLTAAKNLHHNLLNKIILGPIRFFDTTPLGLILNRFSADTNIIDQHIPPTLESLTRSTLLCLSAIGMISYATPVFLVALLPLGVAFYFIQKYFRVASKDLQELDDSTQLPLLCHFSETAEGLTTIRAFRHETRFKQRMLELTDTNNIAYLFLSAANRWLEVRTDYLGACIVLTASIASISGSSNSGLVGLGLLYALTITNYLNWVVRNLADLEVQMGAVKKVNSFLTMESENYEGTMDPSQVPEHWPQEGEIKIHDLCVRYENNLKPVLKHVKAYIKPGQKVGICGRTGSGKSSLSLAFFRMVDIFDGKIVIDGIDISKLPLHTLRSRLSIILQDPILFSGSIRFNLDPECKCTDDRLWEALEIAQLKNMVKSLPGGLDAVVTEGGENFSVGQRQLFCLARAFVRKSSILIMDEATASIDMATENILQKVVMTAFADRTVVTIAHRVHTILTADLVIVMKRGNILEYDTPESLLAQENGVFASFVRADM
T1 sequence (Q14654 whole entry): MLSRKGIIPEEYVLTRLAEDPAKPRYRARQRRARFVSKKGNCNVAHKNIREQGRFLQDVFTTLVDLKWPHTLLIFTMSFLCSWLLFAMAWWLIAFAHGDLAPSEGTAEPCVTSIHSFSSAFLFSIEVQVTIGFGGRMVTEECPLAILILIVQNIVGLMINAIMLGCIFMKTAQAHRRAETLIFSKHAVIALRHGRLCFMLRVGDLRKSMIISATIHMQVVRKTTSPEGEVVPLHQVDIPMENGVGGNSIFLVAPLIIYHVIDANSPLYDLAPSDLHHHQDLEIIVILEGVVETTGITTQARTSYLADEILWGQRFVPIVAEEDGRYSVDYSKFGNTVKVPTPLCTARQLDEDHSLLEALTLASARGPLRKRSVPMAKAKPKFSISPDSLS

| EC50 [µM] | Compound |
| --- | --- |
| > 30 | COc1ccc(S(=O)(=O)c2ccc3c(c2)[C@@H](Oc2noc4cc(Cl)ccc24)[C@H](O)C(C)(C)O3)cc1 [Compound 97, 4R-(6-Chloro-benzo[d]isoxazol-3-yloxy)-6-(4-methoxy-benzenesulfonyl)-2,2-dimethyl-chroman-3S-ol] |
| 20.7 | CC1(C)Oc2ccc(C(=O)c3ccccc3)cc2[C@@H](Oc2noc3cc(Cl)ccc23)[C@@H]1O [Compound 95] |
| 6.04 | CC1(C)Oc2ccc(C#N)cc2[C@@H](N2C(=O)c3ccncc3C2=O)[C@@H]1O [Compound 26, 4R-(1,3-Dioxo-1,3-dihydro-pyrrolo[3,4-c]pyridin-2-yl)-3S-hydroxy-2,2-dimethyl-chroman-6-carbonitrile] |
| 20.5 | CC1(C)Oc2cc(Cl)c(Cl)cc2[C@@H](Oc2noc3cc(Cl)ccc23)[C@@H]1O [Compound 93, 6,7-Dichloro-4R-(6-chloro-benzo[d]isoxazol-3-yloxy)-2,2-dimethyl-chroman-3S-ol] |
| 3.71 | CC1(C)Oc2ccc(C#N)cc2[C@@H](Oc2cc(N)nc3ccccc23)[C@@H]1O (racemic) [Compound 8, 4-(2-Amino-quinolin-4-yloxy)-3-hydroxy-2,2-dimethyl-chroman-6-carbonitrile] |
| 26.4 | CC1(C)Oc2ccncc2[C@@H](Oc2ccn(-c3ccc(Cl)cc3)n2)[C@@H]1O (racemic) [Compound 109, 4-[1-(4-Chloro-phenyl)-1H-pyrazol-3-yloxy]-2,2-dimethyl-3,4-dihydro-2H-pyrano[3,2-c]pyridin-3-ol] |
| > 30 | CC1(C)Oc2ccc(C#N)cc2[C@@H](OP(=O)(c2ccccc2)c2ccccc2)[C@@H]1O [Compound 27] |
| > 30 | CCN(CC)S(=O)(=O)c1ccc2c(c1)[C@@H](Oc1noc3cc(Cl)ccc13)[C@H](O)C(C)(C)O2 [Compound 79, 4R-(6-Chloro-benzo[d]isoxazol-3-yloxy)-3S-hydroxy-2,2-dimethyl-chroman-6-sulfonic acid diethylamide] |
| 2.6 | CCOc1ccc2sc(N[C@@H]3c4cc(C#N)ccc4OC(C)(C)[C@H]3O)nc2c1 (racemic) [Compound 4, 4-(5-Ethoxy-benzothiazol-2-ylamino)-3-hydroxy-2,2-dimethyl-chroman-6-carbonitrile] |
| 12.3 | COc1ccc2onc(O[C@@H]3c4cc(C#N)ccc4OC(C)(C)[C@H]3O)c2c1 [Compound 44, (3S,4R)-3-Hydroxy-4-(5-methoxy-benzo[d]isoxazol-3-yloxy)-2,2-dimethyl-chroman-6-carbonitrile] |
| > 30 | CC1(C)Oc2ccc(S(=O)(=O)c3ccccc3)cc2[C@@H](Oc2noc3cc(Cl)ccc23)[C@@H]1O [Compound 77, 6-Benzenesulfonyl-4R-(6-chloro-benzo[d]isoxazol-3-yloxy)-2,2-dimethyl-chroman-3S-ol] |
| 1.84 | CC1(C)C=C(n2ccnc2-c2ccc(Cl)cc2)c2cc(C#N)ccc2O1 [Compound 54, 4-[2-(4-Chloro-phenyl)-imidazol-1-yl]-2,2-dimethyl-2H-chromene-6-carbonitrile] |
